Measurements from US10934274B2, “Quinoline derivatives as TAM RTK inhibitors” (Qurient Co., Ltd., priority 2015, dated 2021).

What was measured:
[1] = target: T1, TYRO3 (Homo sapiens, UniProt Q06418); test: LanthaScreen Eu kinase binding assay, TYRO3; settings: Tracer 236
T1 construct: purchased Life Technologies
T1 sequence (Q06418 41-890): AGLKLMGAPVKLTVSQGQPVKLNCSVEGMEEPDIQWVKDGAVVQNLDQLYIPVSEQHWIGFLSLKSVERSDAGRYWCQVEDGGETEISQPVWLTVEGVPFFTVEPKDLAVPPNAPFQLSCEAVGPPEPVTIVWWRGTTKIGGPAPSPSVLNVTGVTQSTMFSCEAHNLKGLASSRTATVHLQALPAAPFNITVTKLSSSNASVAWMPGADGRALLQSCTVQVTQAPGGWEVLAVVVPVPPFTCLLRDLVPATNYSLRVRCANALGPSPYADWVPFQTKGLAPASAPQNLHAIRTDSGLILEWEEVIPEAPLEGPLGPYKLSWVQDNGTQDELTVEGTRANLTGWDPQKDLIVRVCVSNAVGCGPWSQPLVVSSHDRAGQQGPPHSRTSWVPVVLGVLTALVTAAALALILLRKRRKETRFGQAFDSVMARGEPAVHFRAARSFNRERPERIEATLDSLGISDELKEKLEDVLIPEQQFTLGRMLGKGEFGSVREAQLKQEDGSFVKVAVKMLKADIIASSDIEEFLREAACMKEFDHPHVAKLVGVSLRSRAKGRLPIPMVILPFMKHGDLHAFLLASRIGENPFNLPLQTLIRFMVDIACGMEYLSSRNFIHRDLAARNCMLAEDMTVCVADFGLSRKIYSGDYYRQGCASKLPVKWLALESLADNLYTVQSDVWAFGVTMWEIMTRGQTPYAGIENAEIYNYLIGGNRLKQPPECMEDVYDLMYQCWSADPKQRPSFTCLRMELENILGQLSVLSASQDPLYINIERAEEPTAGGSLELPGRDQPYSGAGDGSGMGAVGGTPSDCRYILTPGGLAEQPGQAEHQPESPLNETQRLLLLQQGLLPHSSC

[2] = target: T2, Met (Homo sapiens, UniProt P08581); test: LanthaScreen Eu kinase binding assay, Met; settings: Tracer 236, read-out: cMet kinase binding activity (Kd)
T2 construct: purchased Life Technologies
T2 sequence (P08581 25-1390): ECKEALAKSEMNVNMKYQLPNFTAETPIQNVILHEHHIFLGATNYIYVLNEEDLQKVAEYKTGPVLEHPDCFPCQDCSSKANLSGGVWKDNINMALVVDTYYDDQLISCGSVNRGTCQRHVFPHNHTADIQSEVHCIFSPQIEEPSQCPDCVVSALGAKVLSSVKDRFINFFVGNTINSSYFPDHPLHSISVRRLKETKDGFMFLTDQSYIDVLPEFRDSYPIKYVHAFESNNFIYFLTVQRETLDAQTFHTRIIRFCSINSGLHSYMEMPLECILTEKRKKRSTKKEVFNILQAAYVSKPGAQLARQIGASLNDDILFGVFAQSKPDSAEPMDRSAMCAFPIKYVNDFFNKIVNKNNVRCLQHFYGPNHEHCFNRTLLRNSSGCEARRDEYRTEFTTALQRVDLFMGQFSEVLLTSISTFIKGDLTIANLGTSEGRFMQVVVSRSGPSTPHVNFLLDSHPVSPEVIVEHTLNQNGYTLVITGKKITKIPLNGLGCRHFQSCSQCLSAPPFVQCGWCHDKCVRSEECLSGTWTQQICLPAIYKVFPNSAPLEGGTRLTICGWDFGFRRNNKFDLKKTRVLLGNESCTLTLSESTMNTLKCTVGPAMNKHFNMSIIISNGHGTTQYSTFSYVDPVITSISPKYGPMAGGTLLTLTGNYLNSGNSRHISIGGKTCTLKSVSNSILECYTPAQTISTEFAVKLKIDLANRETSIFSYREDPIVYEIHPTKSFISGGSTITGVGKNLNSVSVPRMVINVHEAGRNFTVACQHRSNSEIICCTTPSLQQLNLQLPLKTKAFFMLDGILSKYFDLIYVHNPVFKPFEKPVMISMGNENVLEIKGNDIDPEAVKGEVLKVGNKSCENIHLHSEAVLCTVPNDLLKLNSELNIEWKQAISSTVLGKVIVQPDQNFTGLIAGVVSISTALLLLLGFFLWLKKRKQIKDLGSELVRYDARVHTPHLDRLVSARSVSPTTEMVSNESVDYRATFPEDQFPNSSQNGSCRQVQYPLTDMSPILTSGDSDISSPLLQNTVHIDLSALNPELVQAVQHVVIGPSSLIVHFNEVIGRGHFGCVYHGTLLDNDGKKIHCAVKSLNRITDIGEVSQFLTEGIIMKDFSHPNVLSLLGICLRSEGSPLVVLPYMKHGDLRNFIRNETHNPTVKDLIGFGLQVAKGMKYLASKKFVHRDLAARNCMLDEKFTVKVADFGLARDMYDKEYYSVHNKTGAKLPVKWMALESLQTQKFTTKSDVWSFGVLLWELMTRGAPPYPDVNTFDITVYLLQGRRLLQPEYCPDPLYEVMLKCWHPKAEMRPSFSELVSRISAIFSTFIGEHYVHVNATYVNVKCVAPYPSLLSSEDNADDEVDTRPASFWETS

[3] = tested on: Axl phosphorylation in transiently transfected HEK293T cells; test: Cellular Axl phosphorylation assay; format: cell-based; settings: Homo sapiens, HEK-293T; HEK293T cells transfected with Axl, 1 hour compound treatment, Phospho-Axl vs Total-Axl
Outline: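 Axl-RTK was overexpressed by transfection in HEK293T cells to drive trans-autophosphorylation; cells were exposed to test compound for 1 hour. Phospho-Axl and total Axl were captured in lysates and detected by MSD electrochemiluminescence. IC50 was set between the DMSO group and the empty-vector-transfected minimum.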

SMILES	Kd [1]	Kd [2]	IC50 [3]
CCOc1cn(-c2cnccc2CO)nc1C(=O)Nc1ccc(Oc2ccnc3cc(OC)c(OC)cc23)c(F)c1 [Compound 207]	< 100 nM	< 100 nM	< 100 nM
CCOc1cn(-c2cccnc2)nc1C(=O)Nc1ccc(Oc2ccnc3cc(OC(C)C)c(OC)cc23)cn1 [Compound 208]	100 to 1000 nM	< 100 nM	< 100 nM
CCOc1cn(-c2cnccc2C)nc1C(=O)Nc1ccc(Oc2ccnc3cc(OC)c(OC)cc23)nn1 [Compound 210]	100 to 1000 nM	< 100 nM	< 100 nM

Second part, led by results:

Kd [1]	Kd [2]	SMILES	IC50 [3]
< 100 nM	< 100 nM	CCOc1cn(-c2cnccc2CO)nc1C(=O)Nc1ccc(Oc2ccnc3cc(OC)c(OC)cc23)cc1F [Compound 209]	< 100 nM
100 to 1000 nM	100 to 1000 nM	CCOc1cn(C2CCCN(C)C2)nc1C(=O)Nc1ccc(Oc2ccnc3cc(OC)c(OC)cc23)cc1F (stereo not drawn) [Compound 211]	< 100 nM
